Measured values taken from patent US7674819B2 (Warner-Lambert Company LLC, priority 2005, dated 2010).
Numbering of substitutions follows the chain as printed. Like-named read-outs stand apart in the source and are kept apart here.

Legend:
hAR = target: T1, hAR (Homo sapiens, UniProt P10275); assay: Competitive binding of 3H-DHT to baculovirus/Sf9 generated hAR extracts; conditions: one hour at 4° C., mean of multiple tests
T1 sequence (P10275 1-920): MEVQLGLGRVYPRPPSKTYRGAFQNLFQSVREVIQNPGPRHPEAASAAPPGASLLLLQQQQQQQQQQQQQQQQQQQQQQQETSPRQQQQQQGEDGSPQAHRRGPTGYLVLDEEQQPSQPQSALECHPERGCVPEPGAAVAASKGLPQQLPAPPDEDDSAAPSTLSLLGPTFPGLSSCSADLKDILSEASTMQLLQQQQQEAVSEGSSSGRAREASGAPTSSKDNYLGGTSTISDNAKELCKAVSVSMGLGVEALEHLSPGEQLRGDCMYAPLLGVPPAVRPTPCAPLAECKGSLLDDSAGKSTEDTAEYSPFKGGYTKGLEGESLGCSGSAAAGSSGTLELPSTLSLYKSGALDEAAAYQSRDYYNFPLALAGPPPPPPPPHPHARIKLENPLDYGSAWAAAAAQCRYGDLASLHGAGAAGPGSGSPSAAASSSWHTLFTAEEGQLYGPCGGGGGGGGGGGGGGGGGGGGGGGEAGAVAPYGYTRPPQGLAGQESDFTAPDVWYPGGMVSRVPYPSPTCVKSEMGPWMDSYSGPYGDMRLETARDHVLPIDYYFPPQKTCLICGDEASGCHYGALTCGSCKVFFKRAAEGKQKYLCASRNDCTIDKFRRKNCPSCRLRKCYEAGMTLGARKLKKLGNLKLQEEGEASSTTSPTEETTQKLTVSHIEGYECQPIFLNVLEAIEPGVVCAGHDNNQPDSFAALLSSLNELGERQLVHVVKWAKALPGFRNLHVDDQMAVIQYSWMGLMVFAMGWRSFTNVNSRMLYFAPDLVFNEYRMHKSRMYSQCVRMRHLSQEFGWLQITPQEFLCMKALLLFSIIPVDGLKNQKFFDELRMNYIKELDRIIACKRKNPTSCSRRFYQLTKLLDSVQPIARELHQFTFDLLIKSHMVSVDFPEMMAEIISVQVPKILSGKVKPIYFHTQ
In short: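 Baculovirus/Sf9-expressed hAR extract incubated with test compound, hydroxylapatite and 1 nM 3H-DHT tracer for 1 h at 4° C, then washed free of unbound tracer. Affinity given as concentration inhibiting half of maximal 3H-DHT binding.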

androgen receptor = target: T2, androgen receptor (Homo sapiens, UniProt P10275); assay: AR Antagonist Cell Assay (MDA-MB453-MMTV clone 54-19, luciferase reporter); type: cell-based; conditions: inhibition of induction by DHT (final concentration at 100 μM), 17 hr, compound 0.32-1000 nM, mean of multiple tests
T2 sequence (P10275 1-920 Q868H): T1 sequence (P10275 1-920) with Q868H
In short: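 MDA-MB453 breast tumour cells stably carrying an ARE-containing MMTV promoter driving firefly luciferase, plated overnight at 37° C in charcoal-treated serum medium. DHT added (final […]) and incubated 17 hr at 37° C. Luminescence read after adding luciferase buffer; values are means of multiple tests.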

[1] = concentration at which one half of maximum binding of 1 nM 3H-DHT to hAR is inhibited, read-out: IC50
[2] = IC50, concentration at which one half of maximum binding of 1 nM 3H-DHT to hAR is inhibited

SMILES	IC50 (hAR; [1]) [nM]	IC50 (androgen receptor) [nM]	IC50 (hAR; [2]) [nM]	IC50 (androgen receptor; read-out: IC50) [nM]	IC50 (hAR; concentration at which one half of maximum binding of 1 nM 3H-DHT to hAR is inhibited) [nM]
CC1(C)CN(Cc2ccc(C#N)cc2)C(=O)C1Oc1ccc(C#N)c(C(F)(F)F)c1 (stereo not shown) [Example 48, 4-[1-(4-Cyano-benzyl)-4,4-dimethyl-2-oxo-pyrrolidin-3-yloxy]-2-trifluoromethyl-benzonitrile]	109	62			
COc1cc(OC2C(=O)N(C(C)c3ccccc3)CC2(C)C)ccc1C#N (stereo not shown) [Example 110, 4-[4,4-Dimethyl-2-oxo-1-(1-phenyl-ethyl)-pyrrolidin-3-yloxy]-2-methoxy-benzonitrile]			87	126	
CC1(C)CN(Cc2ccccc2F)C(=O)C1Oc1ccc(C#N)c(C(F)(F)F)c1 (stereo not shown) [Example 15, 4-[1-(2-Fluoro-benzyl)-4,4-dimethyl-2-oxo-pyrrolidin-3-yloxy]-2-trifluoromethyl-benzonitrile]		71	48		
CC1(C)CN(Cc2cc(O)cc(O)c2)C(=O)C1Oc1ccc(C#N)c(C(F)(F)F)c1 (stereo not shown) [Example 18, 4-[1-(3,5-Dihydroxy-benzyl)-4,4-dimethyl-2-oxo-pyrrolidin-3-yloxy]-2-trifluoromethyl-benzonitrile]		8	45		
Cc1csc(S(=O)(=O)N2CC(C)(C)C(Oc3ccc(C#N)c(C(F)(F)F)c3)C2=O)c1 (stereo not shown) [Example 86, 4-[4,4-Dimethyl-1-(4-methyl-thiophene-2-sulfonyl)-2-oxo-pyrrolidin-3-yloxy]-2-trifluoromethyl-benzonitrile]	140			105	
CSCN1CC(C)(C)C(Oc2ccc(C#N)c(C(F)(F)F)c2)C1=O (single isomer, unassigned) [Example 100B, 4-(4,4-Dimethyl-1-methylsulfanylmethyl-2-oxo-pyrrolidin-3-yloxy)-2-trifluoromethyl-benzonitrile]		24	76		
COC(=O)c1ccc(CN2CC(C)(C)C(Oc3ccc(C#N)c(C(F)(F)F)c3)C2=O)cc1 (stereo not shown) [Example 37, 4-[3-(4-Cyano-3-trifluoromethyl-phenoxy)-4,4-dimethyl-2-oxo-pyrrolidin-1-ylmethyl]-benzoic acid methyl ester]		84	47		
Cc1ccccc1S(=O)(=O)N1CC(C)(C)C(Oc2ccc(C#N)c(C(F)(F)F)c2)C1=O (stereo not shown) [Example 94, 4-[4,4-Dimethyl-2-oxo-1-(toluene-2-sulfonyl)-pyrrolidin-3-yloxy]-2-trifluoromethyl-benzonitrile]	150			> 1000	
CC1(C)CN(Cc2nnc(-c3ccc(F)cc3)o2)C(=O)C1Oc1ccc(C#N)c(C(F)(F)F)c1 (stereo not shown) [Example 116, 4-{1-[5-(4-Fluoro-phenyl)-[1,3,4]oxadiazol-2-ylmethyl]-4,4-dimethyl-2-oxo-pyrrolidin-3-yloxy}-2-trifluoromethyl-benzonitrile]	206			369	
COC(=O)c1csc(CN2CC(C)(C)C(Oc3ccc(C#N)c(C(F)(F)F)c3)C2=O)n1 (stereo not shown) [Example 30, 2-[3-(4-Cyano-3-trifluoromethyl-phenoxy)-4,4-dimethyl-2-oxo-pyrrolidin-1-ylmethyl]-thiazole-4-carboxylic acid methyl ester]		813	215		
CC1(C)CN(Cc2noc(-c3ccccc3)n2)C(=O)C1Oc1ccc(C#N)c(C(F)(F)F)c1 (stereo not shown) [Example 46, 4-[4,4-Dimethyl-2-oxo-1-(5-phenyl-[1,2,4]oxadiazol-3-ylmethyl)-pyrrolidin-3-yloxy]-2-trifluoromethyl-benzonitrile]		43	90		
CCCS(=O)(=O)N1CC(C)(C)C(Oc2ccc(C#N)c(C(F)(F)F)c2)C1=O (stereo not shown) [Example 75, 4-[4,4-Dimethyl-2-oxo-1-(propane-1-sulfonyl)-pyrrolidin-3-yloxy]-2-trifluoromethyl-benzonitrile]		16	64		
CC1(C)CN(S(C)(=O)=O)C(=O)C1Oc1ccc(C#N)c(C(F)(F)F)c1 (single isomer, unassigned; (+)) [Example 96, (+)-4-(1-Methanesulfonyl-4,4-dimethyl-2-oxo-pyrrolidin-3-yloxy)-2-trifluoromethyl-benzonitrile]		36			12
CSCN1CC(C)(C)C(Oc2ccc(C#N)c(C(F)(F)F)c2)C1=O (stereo not shown) [Example 68, 4-(4,4-Dimethyl-1-methylsulfanylmethyl-2-oxo-pyrrolidin-3-yloxy)-2-trifluoromethyl-benzonitrile]	133	64			
CC1(C)CN(Cc2nc(-c3ccc([N+](=O)[O-])cc3)cs2)C(=O)C1Oc1ccc(C#N)c(C(F)(F)F)c1 (stereo not shown) [Example 65, 4-{4,4-Dimethyl-1-[4-(4-nitro-phenyl)-thiazol-2-ylmethyl]-2-oxo-pyrrolidin-3-yloxy}-2-trifluoromethyl-benzonitrile]			38	228	
CCCC(C)N1CC(C)(C)C(Oc2ccc(C#N)c(C(F)(F)F)c2)C1=O (racemic) [Example 72, (±)-4-[4,4-Dimethyl-1-(1-methyl-butyl)-2-oxo-pyrrolidin-3-yloxy]-2-trifluoromethyl-benzonitrile]		7	203		
Cc1ccsc1S(=O)(=O)N1CC(C)(C)C(Oc2ccc(C#N)c(C(F)(F)F)c2)C1=O (stereo not shown) [Example 87, 4-[4,4-Dimethyl-1-(3-methyl-thiophene-2-sulfonyl)-2-oxo-pyrrolidin-3-yloxy]-2-trifluoromethyl-benzonitrile]	115			502	
COc1cccc(-c2nnc(CN3CC(C)(C)C(Oc4ccc(C#N)c(C(F)(F)F)c4)C3=O)o2)c1 (stereo not shown) [Example 118, 4-{1-[5-(3-Methoxy-phenyl)-[1,3,4]oxadiazol-2-ylmethyl]-4,4-dimethyl-2-oxo-pyrrolidin-3-yloxy}-2-trifluoromethyl-benzonitrile]	170			381	
Cc1ccc(-c2nnc(CN3CC(C)(C)C(Oc4ccc(C#N)c(C(F)(F)F)c4)C3=O)o2)cc1 (stereo not shown) [Example 61, 4-[4,4-Dimethyl-2-oxo-1-(5-p-tolyl-[1,3,4]oxadiazol-2-ylmethyl)-pyrrolidin-3-yloxy]-2-trifluoromethyl-benzonitrile]	101	51			
CC1(C)CN(Cc2ccccc2)C(=O)C1Oc1ccc(C#N)c(C(F)(F)F)c1 (stereo not shown) [Example 5, 4-(1-Benzyl-4,4-dimethyl-2-oxo-pyrrolidin-3-yloxy)2-trifluoromethyl-benzonitrile]		12	32		
